This is an account of results in patent US20220297126A1, “Microfluidic Pipette Aspirators for Large-Scale Analysis of Single Cells, Clusters and Their Sub-Populations” (Texas Tech University System, priority 2019, published 2022).

Molecules are shown by their SMILES. Where a name gives a salt, the structure may show the parent alone.

What all share (type): cell-based
In one assay the test system is MB231 cells. Nature of the assay: Mechanical characterization (Young's modulus) of drug treated cells in the μFPA device. As to conditions: FIG. 12A. The method, then:
Total 1440 traps, 150 μL Inlet reservoir, Aspiration channel dimension 5×5×35 μm^3. In these figures, a schematic of the complete design. It has an inlet reservoir for holding cell sample. The inlet channel divides into 8 channels and all of them have dead ends. Aspiration traps are place on both sides of the inlet channels. Outlets of two aspiration arrays comes into an outlet channel. Except the first and last outlet channel where a single aspiration has outlets. It has total 1440 traps. This is the snapshot of the PDMS device. In the SEM image you can have a sense of the larger dimension of inlet and outlet channels compared to the aspiration channels.
FIGS. 10A to 10C show the mechanical characterization of cells in the device of the present invention.
FIGS. 12A and 12B show the sensitivity of different cells (MB231 and MCF7) to different drugs (blebbistatin and paclitaxel), and the Young's modulus of the cells. […] Also, cell cycle phases have altered cytoskeletal scaffold. Thus, the μFPA device is sensitive enough to measure cytoskeletal alterations caused by drug interventions and cell cycle phase.

In another assay the test system is MB-231 cells. Kind of assay: Identifying the state of drug treated cells (apoptotic, non-proliferating/quiescent, proliferating) in the microfluidic device. Conditions: for cells identified as quiescent: 48 hours. The method, then:
(§1) Drug Assays. Drug assays were conducted on the tumor cells trapped in the microfluidic device. Food and Drug Administration (FDA) approved chemotherapeutic medication Doxorubicin hydrochloride (Dox, Sigma Aldrich) was used on these cells. Dox was diluted with WFI (water for injection) for cell culture (Gibco) to make a 1 mM Dox solution and it was stored at 4° C. This stock solution of Dox was diluted to 100 μM using DMEM, and further 10-fold serial dilutions were done using DMEM or 1× Annexin Binding Buffer (Life technologies) to obtain the desired concentrations of 100 μM, 10 μM, 1 μM, 0.1 μM, 0.01 μM and 0.001 μM. For all experiments, Dox was prepared freshly by diluting it to 100 μM using DMEM and further dilutions were done to achieve the desired concentrations of Dox. The mixing of Dox with the cell samples and loading them in the microfluidic device was done within 2 minutes, followed by imaging of the loaded sample in the microfluidic device. After imaging the microfluidic device, it was incubated in 37° C. and 5% CO2 environment.
(§2) Cell staining, viability and apoptosis detection. Proliferation of cells in the microfluidic chip was monitored using CellTracker™ Green CMFDA dye (Life technologies). These counts were validated without staining and by using NucBlue™ Live ReadyProbes™ Reagent (Life technologies) to identify the cell nuclei and thus quantifying the cell counts. LIVE/DEAD® Cell Imaging Kit (Life technologies) was used to analyze viability of cells. The stain was made according to the manufacturer's protocol and was used to identify the live and dead cells. Alexa Fluor® 488 Annexin V (Life technologies) was used for detection of apoptosis. The cell sample and Dox dilution was done using 1× Annexin Binding Buffer (Life technologies). 100 μL of sample was prepared (80 μL cell sample+10 μL Annexin V+10 μL Dox) for conducting drug assays. The final concentrations of the Dox in 100 μL sample were 0.01 μM, 0.001 μM and 0.0001 μM. This sample was incubated at 37° C. and 5% CO2 for 30 minutes before loading in the microfluidic device. The images were taken at different time points for different studies. The microfluidic device was stored in the incubator at 37° C. and 5% CO2 between different image time points.
(§3) Identifying the state of drug treated cells. […] These single cells can exist in an apoptotic state or a non-proliferative (quiescent) state. Thus, identifying the state of the cell can give overall information about the drug resistance of cancer cells.
(§4) The apoptotic cells are dead cells; and the non-proliferating cells are the drug resistant cells which are live and have very low proliferative potential. The proliferating cells are also drug resistant cells, which multiply despite of the presence of drug. The drug response for these trapped cells is assessed at 0, 6, 12, 24, 48 hours at 0.01 μM, 0.001 μM and 0.0001 μM concentrations of Dox.
(§5) At the end of 48 hours, the non-proliferative cells were identified as quiescent cells. […] Similarly, 23%, 34% and 10% of cells were identified as quiescent for 0.01 μM, 0.001 μM and 0.0001 μM of dox and MB-231.

Another assay relates to MCF-7 cells. The description is as above. As to conditions: for cells identified as quiescent: 48 hours. How it is done: as §1, §2, §3, §4, §5
The subject of another assay is MB-231 single cells. Kind of assay: Proliferation of single cells in the microfluidic device in the presence of Dox. How it is done: as §1
(§6) Experimental Protocol. The experimental setup for single cell isolation consists of the microfluidic device, 200 μL single channel pipette (Eppendorf) and a motorized inverted system microscope (Olympus IX81). A sample of 2000 cells in 100 μL was loaded in the 6 mm reservoir (inlet) in the microfluidic device. A 200 μL single channel pipette was set at the 1 mm outlet and it was used to aspirate the cell sample. Flow is generated from the inlet reservoir due to the aspiration pressure and passes through the trapping array. As soon as a cell enters into the parking spots, it gets trap there due to the obstacle pillar. This setup is shown the by schematic in FIG. 2A.
(§7) The MCF-7 cells are tagged using a green fluorescent dye CMFDA (Life technologies) and are trapped in the microfluidic device using the same protocol. […] Media was added in the hydrodynamic height added on the reservoir to keep the cells from getting displaced from the parking spots. All the cell samples including the drug treated cells were handled with the same experimental procedure. The loading time of the cells after cell sample preparation is ˜5 seconds. The hydrodynamic height for the drug treated samples was given by media of corresponding drug concentration.
as §2
(§8) To understand the effect of different concentrations of dox on viability of single cells, the inventors conducted a dose response cell viability assay in the microfluidic device. […] From this viability curve, three concentrations were selected to study the proliferation potential of drug resistant MCF-7 and MB-231 single cells. As the […] on the proliferation rate, the lowest three concentrations were selected for this study. […]

The subject of the next assay is MCF-7 single cells. Described as above. As to conditions: time not restated (period of 48 hours). How it is done: as §1, §6, §7, §2, §8

In the case of `CC(=O)O[C@H]1C(=O)[C@@]2(C)[C@H]([C@H](OC(=O)c3ccccc3)[C@]3(O)C[C@H](OC(=O)[C@H](O)[C@@H](NC(=O)c4ccccc4)c4ccccc4)C(C)=C1C3(C)C)[C@]1(OC(C)=O)CO[C@@H]1C[C@@H]2O` [paclitaxel], the “cytoskeletal alteration seen as Young's modulus of the cells vs control” value in the assay with MB231 cells is given as “cytoskeletal alternations in MB231 are induced”.

Consider `COc1cccc2c1C(=O)c1c(O)c3c(c(O)c1C2=O)C[C@@](O)(C(=O)CO)C[C@@H]3O[C@H]1C[C@H](N)[C@H](O)[C@H](C)O1` [Dox, Doxorubicin hydrochloride], for which the “cells show drug resistance” value in the assay on MB-231 cells (MB-231, 0.0001 μM dox) was ~85%; in the assay on MB-231 cells (MB-231, 0.001 μM dox), ~80%; with MB-231 cells (MB-231, 0.01 μM dox), ~60%; with MCF-7 cells (MCF-7, 0.0001 μM dox), ~90%; in the assay with MCF-7 cells (MCF-7, 0.001 μM dox), ~75%; in the assay with MCF-7 cells (MCF-7, 0.01 μM dox) it was ~60%. Also, the “cells identified as quiescent” value came to 10% in the assay on MB-231 cells (MB-231, 0.0001 μM dox); 34% in the assay on MB-231 cells (MB-231, 0.001 μM dox); 23% in the assay on MB-231 cells (MB-231, 0.01 μM dox); 6% in the assay on MCF-7 cells (MCF-7, 0.0001 μM dox); 10% in the assay on MCF-7 cells (MCF-7, 0.001 μM dox); 8% with MCF-7 cells (MCF-7, 0.01 μM dox). The cells proliferated is ~70% with MB-231 single cells (MB-231, 0.0001 μM dox, time not restated (period of 48 hours)); ~50% with MB-231 single cells (MB-231, 0.001 μM dox, time not restated (period of 48 hours)); ~40% with MB-231 single cells (MB-231, 0.01 μM dox, at the end of 48 hours); ~20% in the assay on MB-231 single cells (MB-231, 0.01 μM dox, in 24 hours). Besides, the cells underwent proliferation in the assay on MCF-7 single cells (MCF-7, 0.0001 μM Dox) is given as ~80%; in the assay on MCF-7 single cells (MCF-7, 0.001 μM Dox), ~60%; in the assay with MCF-7 single cells (MCF-7, 0.01 μM Dox), ~45%.

Regarding `Cc1ccc2c(c1)C(=O)C1(O)CCN(c3ccccc3)C1=N2` (stereo not drawn) [blebbistatin], the “cytoskeletal alteration seen as Young's modulus of the cells vs control” value in the assay on MB231 cells is on record as “cytoskeletal alternations in MB231 are induced”.
